These results are taken from patent US8501090B2, “Anti-microbial gas apparatus and method” (priority 2008, dated 2013).

In this experiment the test system is bacteria on healthy skin (back of the hand). As to the kind of experiment: Anti-microbial effectiveness of nitric oxide on volunteers' hands (swab, five zone dilution on agar, zone-based grading). It counts as in vivo. The text has this: An experiment 46 used to determine the anti-microbial effectiveness of nitric oxide is illustrated in FIG. 3. In the experiment, five volunteers were selected 48. From a first hand of each volunteer, a technician using sterile gloves collected 50 a sample. This was accomplished by rubbing the back of the volunteer's hand with a sterile cotton collection swab for ten seconds. The swab was then applied 52 to a nutrient agar petri dish using the five corner or zone dilution method.
The five corner or zone dilution method involves mechanically diluting bacteria on a streak (blood agar) plate by sequentially spreading the bacteria across the plate in each of five zones. As the concentration of bacteria increases so do the number of zones containing bacteria. Bacteria on agar plate become visible as distinct circular colonies. Each colony represents an individual cell which has divided repeatedly to form a patch. The number of bacteria can be estimated by counting the number of patches or how far the bacteria is diluted by streaking it on the agar plate through the five zones.
After the sample was collected 50, the first hand was cleaned 54 using nitric oxide. This was done by placing the hand of the volunteer into a one-gallon plastic freezer bag. The bag was then inflated with nitric oxide through tubing attached to a portable nitric oxide generator. The open end of the bag was taped closed against the volunteer's forearm. A nitric oxide monitor assisted in keeping the nitric oxide concentration within the bag at 1,000 parts-per-million (ppm).
The volunteer maintained the hand inside the bag for fifteen minutes. After the fifteen minutes, the hand was removed from the bag in a sterile manner (i.e., the hand was not permitted to contact any non-sterile objects). Using sterile gloves and a sterile cotton collection swab, the technician collected 56 a second sample by rubbing the swab on the back of the hand for ten seconds. The swab was then applied 58 to a nutrient dish as explained above.
A similar process was followed with the volunteer's other hand. […]

Take `[N]=O` [nitric oxide]: the “reductions in colony counts of bacteria” value (bacteria exposed to nitric oxide, microbes on healthy skin) is “substantial reductions in colony counts”. In addition, the anti-microbial effects result (direct comparison: immersing in enclosed environment of nitric oxide diluted with ambient air vs scrubbing with antibacterial soaps) is on record as “superior to soaps”. Moreover, the bacterial colony count result (hands exposed to 1,000 ppm nitric oxide for fifteen minutes, compared with hands washed with DIAL antibacterial soap for 2 minutes, five volunteers) is “lower bacterial colony count”.
